Measured values as given in US20100113430A1, “THIOXANTHENE DERIVATES USEFUL TO TREAT INFECTIOUS DISEASES” (BKG PHARMA APS, priority 2007, published 2010).
In brackets after ≈: the same amount, converted by molar mass.

Assays:
Type in all cases: cell-based
[1] = system: resistant and susceptible clinical bacterial isolates; assay: Susceptibility of resistant versus susceptible bacterial isolates (Example 3); conditions: isolates of Tables 3a and 3b
Method: (§1) Cell growth was tested using the Minimal Inhibitory Concentration (MIC) susceptibility tests by use of the microdilution broth method in accordance to the NCCLS Guidelines (NCCLS Guidelines, Methods for Dilution Antimicrobial Susceptibility Tests for Bacteria That Grow Aerobically; Approved Standard, Sixth Edition, Volume 23; Number 2). The minimum inhibitory concentration (MIC), is defined ad the lowest concentration of drug which inhibits growth of the test organism, in the sense that no visible growth is detected (total inhibition of growth). In example 2 MIC of the compounds used on fungal microorganisms was determined from the IC90 measurements according to NCCLS Guidelines.
(§2) A log phase culture of bacteria was diluted with fresh pre-warmed Mueller-Hinton medium and adjusted to a defined OD at 600 nm in order to give a final concentration of 1×10^4-5 bacteria/ml medium. The bacterial culture was transferred to microtiter-plates and culture was added to each well. Drug was added to the bacterial culture in the wells as two-fold dilution series of drug in order to give final concentrations ranging from 0.03 to 128 μg/ml. Trays were incubated at 37° C. by shaking in a robot analyzer, PowerWavex, software KC^4′ Kebo.Lab, Copenhagen, for 16 h and optical densities were measured at 600 nm during the incubation time in order to record growth curves. […]

[2] = system: Candida glabrata clinical isolates; assay: MIC (90% growth inhibition), broth microdilution NCCLS M27-A, Candida glabrata
Method: as §1, with “Guidelines. […]” for “Guidelines.”
4 clinical isolates of Candida sp. (including 3 fluconazole resistant isolates) were subcultured for 24 h on Sabouraud glucose agar before susceptibility testing. Broth microdilution tests were performed according to NCCLS document M27-A (Ref: National Committee for Clinical Laboratory Standards. (1997). Reference Method for Broth Dilution Antifungal Susceptibility Testing of Yeasts: Approved Standard M27-A. NCCLS, Wayne, Pa.). Microtitre plates were read spectrophotometrically at 530 nm, after mixing the wells by pipetting to resuspend yeast sediments. In this experiment, the MIC was defined as the lowest drug dilution resulting in 90% growth inhibition.

[3] = system: Candida glabrata Multiresistant isolate; assay: MIC of cis- and trans-forms, Candida glabrata multiresistant isolate; conditions: Example 4
Method: as §1
Cultured microorganisms were assayed as described above. Cis- and trans-isomers of N-dealkyl-clopenthixol was added to the cultures.

[4] = system: multiresistant clinical isolate of Staphylococcus epidermidis; assay: MIC, microdilution broth method (NCCLS), Staphylococcus epidermidis
Method: as §1
A log phase culture of bacteria was diluted with fresh pre-warmed Mueller-Hinton medium and adjusted to a defined OD at 600 nm in order to give a final concentration of 1×10^4-5 bacteria/ml medium. The bacterial culture was transferred to microtiter-plates and culture was added to each well. […] Trays were incubated at 37° C. by shaking in a robot analyzer, PowerWavex, software KC^4′ Kebo.Lab, Copenhagen, for 16 h and optical densities were measured at 600 nm during the incubation time in order to record growth curves. Wells containing bacterial culture without drug were used as controls to ensure correct inoculum size and bacterial growth during the incubation. Cultures were tested in order to detect contaminations. Each experiment was repeated in triplicate.
A clinically relevant isolate of Staphylococcus epidermidis was cultured and assayed as described above for susceptibility towards the compounds listed in table 1.

[5] = system: Enterococcus faecalis resistant clinical isolates; assay: MIC/IC90, resistant clinical isolates of Enterococcus faecalis
Method: as §1
(§3) A log phase culture of bacteria was diluted with fresh pre-warmed Mueller-Hinton medium and adjusted to a defined OD at 600 nm in order to give a final concentration of 1×10^4-5 bacteria/ml medium. The bacterial culture was transferred to microtiter-plates and culture was added to each well. Drug was added to the bacterial culture in the wells as two-fold dilution series of drug in order to give final concentrations ranging from 0.03 to 128 μg/ml. Trays were incubated at 37° C. by shaking in a robot analyzer, PowerWavex, software KC^4′ Kebo.Lab, Copenhagen, for 16 h and optical densities were measured at 600 nm during the incubation time in order to record growth curves. Wells containing bacterial culture without drug were used as controls to ensure correct inoculum size and bacterial growth during the incubation. Cultures were tested in order to detect contaminations. Each experiment was repeated in triplicate. MIC values represent the mean values of two separate triplicate experiments. Intra- and interassay variation was <5%.
(§4) Inhibition 90 (IC90) is defined as: OD responding a 90% growth inhibition.
Clinically relevant isolates were cultured and assayed as described above.

[6] = system: Fluconazole Resistant Candida albicans clinical isolate; assay: MIC (80% growth inhibition), broth microdilution NCCLS M27-A, fluconazole resistant Candida albicans; conditions: fluconazole resistant Candida albicans; MIC = 80% growth inhibition
Method: The antimicrobial effect of N-dealkyl-trans-clopenthixol and N-dealkyl-trans-flupenthixol was studied by exposing cells to 0-8 μg/ml of the compounds in two-fold dilutions. Each experiment was repeated in triple duplicate. MIC values represent the mean values of two separate experiments.
Clinical Isolate of A Fluconazole Resistant Candida albicans from a Patient with Candidemia.
The isolates were subcultured for 24 h on Sabouraud glucose agar before susceptibility testing. Broth microdilution tests were performed according to NCCLS document M27-A (Ref: National Commitee for Clinical Laboratory Standards. (1997). Reference Method for Broth Dilution Antifungal Susceptibility Testing of Yeasts: Approved Standard M27-A. NCCLS, Wayne, Pa.)
Microtitre plates were read spectrophotometrically at 530 nm, after mixing the wells by pipetting to resuspend yeast sediments. The MIC was defined as the lowest drug dilution resulting in 80% growth inhibition.

[7] = system: Streptococci; assay: MIC/IC90 broad spectrum, Streptococci; conditions: 30 strains, 20 resistant
Method: as §1, §3, §4
A broad spectrum of bacteria were cultured and assayed as described above for susceptibility towards N-dealkyl-clopenthixol.

[8] = system: clinically relevant resistant bacterial isolate S. Aureus; assay: Growth inhibition by cis/trans combinations, resistant isolate S. Aureus; conditions: Trans-compound 0.5 μg/ml, Cis-compound 0 μg/ml
Method: as §1, §2

[9] = Enterococcus faecalis 10, BLR, CR

Q: With `Clc1ccc2c(c1)/C(=C/CCN1CCNCC1)c1ccccc1S2` [N-dealkyl-trans-clopenthixol, trans-1-(3-(2-chloro-thioxanthen-9-ylidene)propyl)piperazine] as the compound, how does the “difference in susceptibility between resistant and susceptible isolates” value [1] read?
A: No difference in susceptibility

Q: And the MIC ([2]; strain 2. Candida glabrata FR (fluconazole resistant))?
A: 1 µg/mL (≈ 2.8 µM)

Q: What about the MIC ([2]; strain 4. Candida glabrata FR (fluconazole resistant)) of the same compound?
A: 0.5 µg/mL (≈ 1.4 µM)

Q: What about the MIC ([2]; strain 5. Candida glabrata) of the same compound?
A: 0.5 µg/mL (≈ 1.4 µM)

Q: What about the MIC [3] of the same compound?
A: 1.0 µg/mL

Q: What about the MIC ([4]; Staphylococcus epidermidis multiresistant isolate, Example 6, isomers alone and 1:1 mixture) of the same compound?
A: 0.5 µg/mL (≈ 1.4 µM)

Q: And the MIC ([4]; multiresistant clinical isolate of Staphylococcus epidermidis, Example 1)?
A: 0.5 µg/mL (≈ 1.4 µM)

Q: What about the IC90 ([5]; Enterococcus faecalis 1, VanA) of the same compound?
A: 0.6 µg/mL (≈ 1.68 µM)

Q: And the MIC ([5]; Enterococcus faecalis 1, VanA)?
A: 1 µg/mL (≈ 2.8 µM)

Q: What about the IC90 ([5]; Enterococcus faecalis 2, VanA) of the same compound?
A: 0.6 µg/mL (≈ 1.68 µM)

Q: And the MIC ([5]; Enterococcus faecalis 2, VanA)?
A: 1 µg/mL (≈ 2.8 µM)

Q: And the MIC ([5]; Enterococcus faecalis 3, VanA)?
A: 1 µg/mL (≈ 2.8 µM)

Q: And the IC90 ([5]; Enterococcus faecalis 4, VanB)?
A: 0.6 µg/mL (≈ 1.68 µM)

Q: And the MIC ([5]; Enterococcus faecalis 4, VanB)?
A: 1 µg/mL (≈ 2.8 µM)

Q: What about the IC90 ([5]; Enterococcus faecalis 5, Van B) of the same compound?
A: 1 µg/mL (≈ 2.8 µM)

Q: What about the MIC ([5]; Enterococcus faecalis 5, Van B) of the same compound?
A: 2 µg/mL (≈ 5.6 µM)

Q: And the IC90 ([5]; Enterococcus faecalis 6, VanB)?
A: 0.6 µg/mL (≈ 1.68 µM)

Q: What about the MIC ([5]; Enterococcus faecalis 6, VanB) of the same compound?
A: 1 µg/mL (≈ 2.8 µM)

Q: And the IC90 ([5]; Enterococcus faecalis 7, VanA)?
A: 0.6 µg/mL (≈ 1.68 µM)

Q: And the MIC ([5]; Enterococcus faecalis 7, VanA)?
A: 1 µg/mL (≈ 2.8 µM)

Q: And the IC90 ([5]; Enterococcus faecalis 8, HLAR)?
A: 0.6 µg/mL (≈ 1.68 µM)

Q: What about the MIC ([5]; Enterococcus faecalis 8, HLAR) of the same compound?
A: 1 µg/mL (≈ 2.8 µM)

Q: And the IC90 ([5]; Enterococcus faecalis 9, HLAR)?
A: 0.6 µg/mL (≈ 1.68 µM)

Q: What about the MIC ([5]; Enterococcus faecalis 9, HLAR) of the same compound?
A: 1 µg/mL (≈ 2.8 µM)

Q: And the IC90 [5, 9]?
A: 0.6 µg/mL (≈ 1.68 µM)

Q: What about the MIC [5, 9] of the same compound?
A: 1 µg/mL (≈ 2.8 µM)

Q: And the MIC [6]?
A: 3 µg/mL (≈ 8.41 µM)

Q: What about the “IC90 (mean)” value [7] of the same compound?
A: 0.5 µg/mL (≈ 1.4 µM)

Q: And the “MIC (mean)” value [7]?
A: 1 µg/mL (≈ 2.8 µM)

Q: And the MIC range [7]?
A: 0.5 to 2 µg/mL

Q: And the Growth inhibition [8]?
A: 100%
